The record followed here is PMC6792352, “Limited Chemical Structural Diversity Found to Modulate Thyroid Hormone Receptor in the Tox21 Chemical Library” (Environmental Health Perspectives, 2019).

The nature of the series: in vitro. As to conditions: rat, gh3-tre-luc cells.

SMILES strings stand for the structures.

For the molecule `C#C[C@]1(O)CC[C@H]2[C@@H]3CCC4=CCCC[C@@H]4[C@H]3C(=C)C[C@@]21CC` [Desogestrel], for the setting “AC50 (uM) modified / 1000”, the 50% cytotoxic concentration (CC50) – broadly, the concentration at which the toxic effect on the cells reaches its halfway point – at 24 h came out at 34.9 µM.
`Cc1ccccc1OP(=O)(Oc1ccccc1C)Oc1ccccc1C` [Tri-o-cresyl phosphate] had a CC50 at 24 h (AC50 (uM) modified / 1000, Tox21_110001=Tox21_202983, viability, 1 nM T3 present, 24 h) of 63.4 µM.
On to `C=CCc1ccc(OC)c(OC)c1` [Methyleugenol], for which the 50% cytotoxic concentration (CC50) at 24 h (AC50 (uM) modified / 1000) was > 90 µM.
Take `O=C(O)C1=C(CSc2nnnn2CS(=O)(=O)O)CS[C@@H]2[C@H](NC(=O)[C@H](O)c3ccccc3)C(=O)N12` [Cefonicid sodium]: the half-maximal cytotoxic concentration (CC50) at 24 h (AC50 (uM) modified / 1000) was > 50 µM.
Still for that read-out and setting: the same measure for `CCC(=O)O[C@@H](O[P@](=O)(CCCCc1ccccc1)CC(=O)N1C[C@H](C2CCCCC2)C[C@H]1C(=O)O)C(C)C` [Fosinopril sodium]: > 50 µM; for `CC(=O)OC/C=C/c1ccccc1` [3-Phenylprop-2-en-1-yl acetate]: > 90 µM; for `CC(Cl)C(=O)O` (stereo not drawn) [2-Chloropropanoic acid]: > 100 µM.
The same measure, in the same setting: for `COc1cc([N+](=O)[O-])ccc1N` [2-Methoxy-4-nitroaniline] the value was 40.9 µM; for `N=C(N)c1ccc(OCCCOc2ccc(C(=N)N)cc2)cc1` [Propamidine], > 50 µM.
As for `Clc1cccc(C(Cl)(Cl)Cl)n1` [Nitrapyrin], where the note is “AC50 (uM) modified / 1000”, the CC50 at 24 h was > 90 µM.
On the same count and under the same terms, for `CCN(CC)C(=O)C(C)Oc1cccc2ccccc12` (stereo not drawn) [Napropamide] the value was > 90 µM.
The same measure, in the same setting: for `O=C(O)Cc1cc(I)c(Oc2ccc(O)c(I)c2)c(I)c1` [Tiratricol] the value was > 20 µM; for `C[C@H](O)[C@H]1CC[C@H]2[C@@H]3CC[C@@H]4C[C@H](O)CC[C@]4(C)[C@H]3CC[C@]12C` [Pregnandiol], > 50 µM.
On the same count and under the same terms, for `CCOC(=O)C(C)Oc1ccc(Oc2nc3ccc(Cl)cc3o2)cc1` (stereo not drawn) [Fenoxaprop-ethyl] the value was > 90 µM; for `O=[N+]([O-])c1cc(C(F)(F)F)c(Cl)c([N+](=O)[O-])c1Cl` [2,4-Dichloro-1,3-dinitro-5-(trifluoromethyl)benzene], 2.31 µM.
Consider `C=COCCOCCOC=C` [{2-[2-(Ethenyloxy)ethoxy]ethoxy}ethene], for which the CC50 at 24 h (AC50 (uM) modified / 1000) was > 90 µM.
Still for that read-out and setting: for `O=C(O)Cc1c(Cl)ccc(Cl)c1Cl` [Chlorfenac] the value was > 90 µM.
Same read-out and setting: for `CCc1ccc(S(=O)(=O)O)cc1` [4-Ethylbenzenesulfonic acid] the value was > 50 µM; for `NC(=O)OCC(O)COc1ccc(Cl)cc1` (stereo not drawn) [Chlorphenesin carbamate], > 20 µM.
Same read-out and setting: for `O=C1C(c2[nH]c3ccccc3c2O)=Nc2ccccc21` [Indigo dye] the value was > 90 µM; for `CNC(=O)c1ccccc1` [N-Methylbenzamide], > 90 µM; for `C[C@]12O[C@H](C[C@]1(O)CO)n1c3ccccc3c3c4c(c5c6ccccc6n2c5c31)CNC4=O` [Lestaurtinib], 0.226 µM.
On to `COc1ccc2c(c1)OC(C)(C)C(c1ccccc1)C2c1ccc(OCCN2CCCC2)cc1` (stereo not drawn) [Ormeloxifene], for which the CC50 at 24 h (AC50 (uM) modified / 1000) is 6.42 µM. Against the preceding molecule, the CC50 at 24 h is about 28-fold higher.
On the same count and under the same terms, the same measure for `C[N+]1(CC2COC(c3ccccc3)(C3CCCCC3)O2)CCCCC1` (stereo not drawn) [Oxapium iodide]: > 50 µM; for `CC(C)C[C@H](NC(=O)OCC1c2ccccc2-c2ccccc21)C(=O)O` [N-(9-Fluorenylmethoxycarbonyl)-L-leucine]: > 90 µM.
Take `Clc1ccc(Cl)cc1` [1,4-Dichlorobenzene]: the CC50 at 24 h (AC50 (uM) modified / 1000, Tox21_110001=Tox21_111293, viability, 1 nM T3 present, 24 h) was > 50 µM and the CC50 at 24 h (AC50 (uM) modified / 1000, Tox21_110001=Tox21_200399, viability, 1 nM T3 present, 24 h) is > 90 µM.
For `CCCc1nc(C(C)(C)O)c(C(=O)OCc2oc(=O)oc2C)n1Cc1ccc(-c2ccccc2-c2nnn[nH]2)cc1` [Olmesartan medoxomil], where the note is “AC50 (uM) modified / 1000”, the CC50 at 24 h was > 50 µM.
On to `OC(c1ccccc1)(c1ccccc1)C1CCNCC1` [Azacyclonol], for which the CC50 at 24 h (AC50 (uM) modified / 1000, Tox21_110001=Tox21_110399, viability, 1 nM T3 present, 24 h) is > 20 µM.
For the molecule `O=Cc1cccc([N+](=O)[O-])c1` [3-Nitrobenzaldehyde], the CC50 at 24 h (AC50 (uM) modified / 1000) was > 90 µM.
For the molecule `CCCCCCC(=O)O` [Heptanoic acid], for the setting “AC50 (uM) modified / 1000”, the 50% cytotoxic concentration (CC50) at 24 h was > 90 µM.
Same read-out and setting: the same measure for `Cc1ccccc1` [Toluene]: > 90 µM.
Still for that read-out and setting: for `Cc1ccccc1OCC1CO1` (stereo not drawn) [o-Cresyl glycidyl ether] the value was > 90 µM.
